Laboratory results reported in patent US20230086703A1, “N-(4-(5-chloropyridin-3-yl)phenyl)-2-(2-(cyclopropanesulfonamido)pyrimidin-4-yl) butanamide derivatives and related compounds as human CTPS1 inhibitors for the treatment of proliferative diseases” (Step Pharma S.A.S., priority 2019, published 2023).

These compounds were tested against T1, human CTPS1 (Homo sapiens, UniProt P17812) (assay: RapidFire/MS-based enzyme selectivity assay (human CTPS1 versus CTPS2), CTPS1 isoform). Conditions: RapidFire/MS IC50 values of CTPS1 and CTPS2; Table 15.
T1 construct: FLAG (with GG linker); His8 (with GG linker); purchased Proteros biostructures GmbH
T1 sequence (P17812 1-591): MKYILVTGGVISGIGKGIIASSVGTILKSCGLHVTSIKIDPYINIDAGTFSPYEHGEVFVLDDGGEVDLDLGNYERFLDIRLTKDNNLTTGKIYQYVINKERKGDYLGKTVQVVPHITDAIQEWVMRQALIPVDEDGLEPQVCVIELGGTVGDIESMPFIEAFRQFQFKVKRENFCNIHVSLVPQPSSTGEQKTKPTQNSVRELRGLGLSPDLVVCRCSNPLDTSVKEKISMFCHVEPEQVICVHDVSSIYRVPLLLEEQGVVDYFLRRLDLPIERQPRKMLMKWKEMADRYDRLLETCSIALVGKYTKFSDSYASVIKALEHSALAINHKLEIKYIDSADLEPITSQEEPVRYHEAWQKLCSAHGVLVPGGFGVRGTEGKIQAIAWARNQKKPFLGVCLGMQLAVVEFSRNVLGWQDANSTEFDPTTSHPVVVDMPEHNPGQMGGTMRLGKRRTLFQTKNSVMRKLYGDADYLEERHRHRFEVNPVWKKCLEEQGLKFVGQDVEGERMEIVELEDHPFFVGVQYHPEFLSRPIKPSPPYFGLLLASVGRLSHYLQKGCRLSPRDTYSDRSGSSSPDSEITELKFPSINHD
Format: biochemical
Method: Human CTPS1 Versus CTPS2 Selectivity Assessment by RapidFire/MS Analysis.
The enzyme inhibitory activities against each target isoform of interest may be determined for the compounds of the invention using an optimised RapidFire high-throughput mass spectrometry (RF/MS) assay format. RF/MS assays for both human CTPS1 and CTPS2 may be performed in assay buffer consisting of 50 mM HEPES (Merck), 20 mM MgCl2, 5 mM KCl, 1 mM DTT, 0.01% Tween-20, pH to 8.0 accordingly. Human full-length active C-terminal FLAG-His-tag CTPS1 (UniProtKB—P17812, CTPS1[1-591]-[…] (CTPS1[1-591]-SEQ ID NO: 1)) may be obtained from Proteros biostructures GmbH. Human full length active C-terminal FLAG-His-Avi tagged CTPS2 (UniProtKB—Q9NRF8, CTPS2 [1-586]-[…] (CTPS2 [1-586]—SEQ ID NO: 2)) may be obtained from Harker Bio.
Human CTPS (1 or 2) protein may be prepared in 1× assay buffer to the final working protein concentration required for the reaction. A 2 uL volume per well of 2×CTPS (1 or 2) protein may be mixed with 40 nL of compound using acoustic (ECHO) delivery and incubated for 10 minutes at 25° C. Each isoform enzymatic reaction may be subsequently initiated by addition of 2 uL per well of a 2× substrate mix in assay buffer. For hCTPS1: ATP (0.3 mM), UTP (0.2 mM), GTP (0.07 mM) and L-glutamine (0.1 mM). For hCTPS2: ATP (0.1 mM), UTP (0.04 mM), GTP (0.03 mM) and L-glutamine (0.1 mM). Each mixture may be incubated for an appropriate amount of time per isoform within the determined linear phase of the reaction at 25° C. A 80 uL volume of stop solution (1% formic acid with 0.5 uM ^13C9-^15N3-CTP in H2O) may be added and the plate immediately heat-sealed and centrifuged for 10 minutes at 4,000 rpm. Following centrifugation, plates may be loaded onto the Agilent RapidFire microfluidic solid phase extraction system coupled to an API4000 triple quadrupole mass spectrometer (RF/MS) for analysis.
In all cases, the enzyme converts UTP to CTP. Highly specific and sensitive multiple reaction monitoring (MRM) MS methods may be optimised for the detection of the enzymatic reaction product, CTP, and the stable isotope labelled product standard ^13C9-^15N3-CTP. Readout for data analysis may be calculated as the ratio between the peak area of the product CTP and the internal standard ^13C9-^15N3-CTP. For data reporting, the following equation may be used:
(R=ratio/readout, P=product signal area, IS=internal standard signal area)
For each screening plate, the means of the negative (DMSO) and positive control values were used for the calculation of the respective assay window (S/B) and Z′ values. The median of the respective control values was used for calculation of percent inhibition according to the following equation:
(I=Inhibition, Rneq=median of negative control readout values, Rpos=median of positive control readout values, Rsample=sample readout value)
Percentage inhibition was then plotted against compound concentration, and the 50% inhibitory concentration (IC50) was determined from the resultant concentration-response curve.
Fold selectivity between CTPS1 and CTPS2 was subsequently calculated according to the following equation: […]

| Selectivity (fold selectivity between CTPS1 and CTPS2) | SMILES |
| --- | --- |
| + (2-30 fold (+)) | CCOc1cncc(-c2ccc(NC(=O)C(F)(CC)c3ccnc(NS(=O)(=O)C4CC4)n3)nc2)n1 (single isomer, unassigned) [P113, 2-(2-(Cyclopropanesulfonamido)pyrimidin-4-yl)-N-(5-(6-ethoxypyrazin-2-yl)pyridin-2-yl)-2-fluorobutanamide] |
| +++ (>60 fold (+++)) | CCOc1cncc(-c2ccc(NC(=O)C(F)(CC)c3ccnc(NS(=O)(=O)C4CC4)n3)nc2)n1 (single isomer, unassigned) [P114, 2-(2-(Cyclopropanesulfonamido)pyrimidin-4-yl)-N-(5-(6-ethoxypyrazin-2-yl)pyridin-2-yl)-2-fluorobutanamide] |
| +++ (>60 fold (+++)) | CCOc1cncc(-c2ccc(NC(=O)C(C)(OC)c3cncc(NS(=O)(=O)C4CC4)n3)nc2)n1 (single isomer, unassigned) [P205a, 2-(6-(cyclopropanesulfonamido)pyrazin-2-yl)-N-(5-(6-ethoxypyrazin-2-yl)pyridin-2-yl)-2-methoxypropanamide] |
| ++ (>30-60 fold (++)) | CCOc1cncc(-c2ccc(NC(=O)C(C)(OC)c3cncc(NS(=O)(=O)C4CC4)n3)nc2)n1 (single isomer, unassigned) [P205b, 2-(6-(cyclopropanesulfonamido)pyrazin-2-yl)-N-(5-(6-ethoxypyrazin-2-yl)pyridin-2-yl)-2-methoxypropanamide] |
| +++ (>60 fold (+++)) | CCOc1cncc(-c2ccc(NC(=O)C(F)(CC)c3cncc(NS(=O)(=O)C4CC4)n3)nc2)n1 (single isomer, unassigned) [P206, 2-(6-(2-cyclopropanesulfonamido)pyrazin-2-yl)-N-(5-(6-ethoxypyrazin-2-yl)pyridin-2-yl)-2-fluorobutanamide] |
| + (2-30 fold (+)) | CCOc1cncc(-c2ccc(NC(=O)C(F)(CC)c3cncc(NS(=O)(=O)C4CC4)n3)nc2)n1 (single isomer, unassigned) [P207, 2-(6-(cyclopropanesulfonamido)pyrazin-2-yl)-N-(5-(6-ethoxypyrazin-2-yl)pyridin-2-yl)-2-fluorobutanamide] |
| + (2-30 fold (+)) | CCC(C(=O)Nc1ccc(-c2cncc(Cl)c2)cc1)c1ccnc(NS(=O)(=O)C2CC2)n1 (stereo not shown) [P1, N-(4-(5-Chloropyridin-3-yl)phenyl)-2-(2-(cyclopropanesulfonamido)pyrimidin-4-yl)butanamide] |

Same assay, conditions: RapidFire/MS IC50 values of CTPS1 and CTPS2; Table 17

| Selectivity (fold selectivity between CTPS1 and CTPS2) | SMILES |
| --- | --- |
| +++ (>60 fold (+++)) | CCOc1cncc(-c2ccc(NC(=O)C3(c4ccnc(NS(=O)(=O)C5CC5)n4)CCC(O)CC3)nc2)n1 (single isomer, unassigned) [P227, 1-(2-(cydopropanesulfonamido)pyrimidin-4-yl)-N-(5-(6-ethoxypyrazin-2-yl)pyridin-2-yl)-4-hydroxycyclohexanecarboxamide] |
| +++ (>60 fold (+++)) | CCOc1cncc(-c2ccc(NC(=O)C3(c4ccnc(NS(=O)(=O)C5CC5)n4)CCC(O)CC3)nc2)n1 (single isomer, unassigned) [P228, 1-(2-(cyclopropanesulfonamido)pyrimidin-4-yl)-N-(5-(6-ethoxypyrazin-2-yl)pyridin-2-yl)-4-hydroxycyclohexanecarboxamide] |
| +++ (>60 fold (+++)) | CCOc1cncc(-c2ccc(NC(=O)C3(c4ccnc(NS(=O)(=O)C5CC5)n4)CCC(N(C)C)CC3)nc2)n1 (single isomer, unassigned) [P229, 1-(2-(cyclopropanesulfonamido)pyrimidin-4-yl)-4-(dimethylamino)-N-(5-(6-ethoxypyrazin-2-yl)pyridin-2-yl)cyclohexane-1-carboxamide] |

Same assay, conditions: Table 16, human CTPS1 over human CTPS2, RapidFire/MS IC50 values

| Selectivity (fold selectivity between CTPS1 and CTPS2) | SMILES |
| --- | --- |
| +++ (>60 fold (+++)) | CCOc1cncc(-c2ccc(C(=O)NC(CC)c3csc(NS(=O)(=O)C4CC4)n3)c(F)c2)n1 (racemic) [R62, N-(1-(2-(cyclopropanesulfonamido)thiazol-4-yl)propyl)-4-(6-ethoxypyrazin-2-yl)-2-fluorobenzamide] |
| + (2-30 fold (+)) | CCOc1cncc(-c2ccc(C(=O)N(C)C(CC)c3csc(NS(=O)(=O)C4CC4)n3)c(F)c2)n1 (racemic) [R63, N-(1-(2-(cyclopropanesulfonamido)thiazol-4-yl)propyl)-4-(6-ethoxypyrazin-2-yl)-2-fluoro-N-methylbenzamide] |
| ++ (>30-60 fold (++)) | CCC(NC(=O)c1ccc(-c2cncc(OC(C)C)n2)cc1F)c1csc(NS(=O)(=O)C2CC2)n1 (racemic) [R64, N-(1-(2-(cyclopropanesulfonamido)thiazol-4-yl)propyl)-2-fluoro-4-(6-isopropoxypyrazin-2-yl)benzamide] |
| ++ (>30-60 fold (++)) | CCC(NC(=O)c1ccc(-c2cncc(F)c2)cc1)c1csc(NS(=O)(=O)C2CC2)n1 (single isomer, unassigned) [R68, N-(1-(2-(cyclopropanesulfon-amido)thiazol-4-yl)propyl)-4-(5-fluoropyridin-3-yl)benzamide] |
| +++ (>60 fold (+++)) | CCC(NC(=O)c1ccc(-c2cncc(F)c2)cc1)c1csc(NS(=O)(=O)C2CC2)n1 (single isomer, unassigned) [R69, N-(1-(2-(cyclopropanesulfon-amido)thiazol-4-yl)propyl)-4-(5-fluoropyridin-3-yl)benzamide] |
| +++ (>60 fold (+++)) | CCOc1cncc(-c2ccc(C(=O)NC(CC)c3csc(NS(=O)(=O)C4CC4)n3)c(F)c2)n1 (single isomer, unassigned) [R70, N-(1-(2-(cyclopropanesulfon-amido)thiazol-4-yl)propyl)-4-(6-ethoxypyrazin-2-yl)-2-fluorobenzamide] |
| +++ (>60 fold (+++)) | CCOc1cncc(-c2ccc(C(=O)NC(CC)c3csc(NS(=O)(=O)C4CC4)n3)c(F)c2)n1 (single isomer, unassigned) [R71, N-(1-(2-(cyclopropanesulfon-amido)thiazol-4-yl)propyl)-4-(6-ethoxypyrazin-2-yl)-2-fluorobenzamide] |
| +++ (>60 fold (+++)) | CCOc1cncc(-c2ccc(C(=O)NC(CCOC)c3csc(NS(=O)(=O)C4CC4)n3)c(F)c2)n1 (single isomer, unassigned) [R92, N-(1-(2-(cyclopropanesulfon-amido)thiazol-4-yl)-3-methoxypropyl)-4-(6-ethoxypyrazin-2-yl)-2-fluorobenzamide] |
| +++ (>60 fold (+++)) | CCOc1cncc(-c2ccc(C(=O)NC(CCOC)c3csc(NS(=O)(=O)C4CC4)n3)c(F)c2)n1 (single isomer, unassigned) [R93, N-(1-(2-(cyclopropanesulfon-amido)thiazol-4-yl)-3-methoxypropyl)-4-(6-ethoxypyrazin-2-yl)-2-fluorobenzamide] |
